Consider 1 compound from patent publication US20070225278A1, “Methods for treating cognitive and other disorders” (priority 2006, published 2007).

Assay [1] deals with male Sprague Dawley CD rats. Kind of assay: Reversal of DOI induced deficits in PPI. As to conditions: significant at 17 mg/kg IP (3-30 mg/kg tested); DOI 3 mg/kg IP.
A further assay has as its system rats. The assay can be described thus: 5-choice serial reaction time test (5CSRT), variable ITI. As to conditions: 1 mg/kg ip, 10 and 7 sec ITI, p<0.05 vs vehicle. The assay is classed as in vivo, rat. From the text: The 5-choice serial reaction time task is a behavioral assay that is used to measure attention and impulsivity in rats. Rats are trained to respond correctly to aperture illuminations reinforced to food rewards until they reach >70% correct responses during a 30-minute baseline session. Once animals reach baseline criteria, a variable stimulus duration (SD) and variable inter-trial interval (ITI) test can be used to manipulate normal baseline performance. […] When the ITI is increased from that used during baseline training impulsivity, as measured by premature responses, is increased. Compounds and manipulations that improve attention will improve performance and those that decrease impulsivity will decrease premature responses.
5CSRT: The test apparatus consisted of ten 25×25 cm aluminum chambers (Med Associates Inc., St. Albans, Vt.). The rear wall of each chamber was concavely curved, containing five accessible apertures, each 2.5 cm square, and 4 cm deep positioned 2 cm above floor level. […]
5CSRT Training: Prior to drug treatments, rats were trained to discriminate a brief visual stimulus light presented randomly in one of the five spatial locations. […] A single nose-poke in this opening during the period of illumination (signal period), or during the 5 second afterwards (limited hold) was reinforced by the delivery of a food pellet and a correct response was recorded. […]

The subject of assay [2] is male Sprague Dawley CD rats. The assay can be described thus: Baseline PPI, compound administered alone. The assay is classed as in vivo, rat. As to conditions: dose range that attenuates d-amphetamine and DOI deficits. From the text:
Inter-trial intervals averaged 15 s.

In assay [3] the test system is male Sprague Dawley CD rats. Kind of assay: Reversal of MK-801 induced deficits in PPI. As to conditions: 3-30 mg/kg IP, MK-801 0.15 mg/kg SC.

`c1cc2c3c(c1)[C@H]1CCC[C@H]1N3CCNC2` [Compound 1]: the “attenuation of DOI induced disruption in gating (PPI)” value in assay [1] is on record as “significantly attenuated”. Besides, in the assay with rats, the premature responding entry is given as “statistically significant decrease”. In addition, the “effect on baseline PPI when administered alone” value in assay [2] is given as “no effect”. Besides, the “reduction of the increase in startle produced by MK-801” value in assay [3] (all doses tested) was “did significantly reduce”. The “attenuation of MK-801 induced disruption in gating (PPI)” value in assay [3] (any dose tested) was “did not show an ability to significantly attenuate”.
